Test results: patent US11602534B2, “Pyrimidine derivative kinase inhibitors” (HEFEI INSTITUTES OF PHYSICAL SCIENCE, CHINESE ACADEMY OF …, priority 2017, dated 2023)

How the values were obtained:
[1] = test system: Tel-FLT3-BaF3; assay: Proliferation of Tel-FLT3-BaF3 cells, CCK8 cell viability assay; format: cell-based; conditions: Mus musculus, 72 hours, stably expressing FLT3 kinase
Source text: (§1) In this example the following cells were used: […] (purchased from ATCC), mouse P210-BaF3 (stably expressing BCR-ABL mutant activated kinase), mouse P210/T315I-BaF3 (stably expressing BCR-ABL/T315I mutant activated kinase), mouse FLT3-ITD-BaF3 (stably expressing FLT3/ITD mutant activated kinase), mouse TEL-FLT3-BaF3 (stably expressing FLT3 kinase), mouse TEL-cKIT-BaF3 (stably expressing cKIT kinase), mouse BaF3-tel/T670I-cKit (stably expressing cKIT/T670I mutant activated kinase), mouse Tel-VEGFR2-BaF3 (stably expressing VEGFR2 kinase), mouse Tel-PDGFRα-BaF3 (stably expressing PDGFRα kinase), mouse Tel-PDGFRβ-BaF3 (stably expressing PDGFRβ kinase), mouse Tel-RET-BaF3 (stably expressing RET kinase). The above cell lines were all constructed by our laboratory according to the following method: the kinase region sequences of human P210, P210/T315I, FLT3/ITD, FLT3, cKIT, cKIT/T670I, VEGFR2, PDGFRα, PDGFRβ, RET were respectively amplified by PCR, and inserted into MSCV-Puro vectors having N-terminal TEL or TPR fragments (Clontech). The vectors were stably transfected into mouse BaF3 cells by means of retrovirus, and the growth factor IL-3 were removed, eventually obtaining cell lines that depend on transferred protein P210, P210/T315I, FLT3/ITD, FLT3, cKIT, cKIT/T670I, VEGFR2, PDGFRα, PDGFRβ, or RET.
(§2) GI50 (unit: μM) was calculated by quantifying the number of living cells based on quantitative measurement of reductive dehydrogenase in living cells with CCK8 cell viability assay kit (Bestbio, China).

[2] = test system: TEL-VEGFR2-BaF3; assay: Proliferation of TEL-VEGFR2-BaF3 cells, CCK8 cell viability assay; format: cell-based; conditions: Mus musculus, 72 hours, stably expressing VEGFR2 kinase
Source text: as §1, §2

[3] = test system: Tel-cKit-BaF3; assay: Proliferation of Tel-cKit-BaF3 cells, CCK8 cell viability assay; format: cell-based, mouse; conditions: Mus musculus; 72 hours, CCK8; stably expressing cKIT kinase
Source text: as §1, §2

[4] = test system: Tel-cKit/T670I-BaF3; assay: Proliferation of Tel-cKit/T670I-BaF3 cells, CCK8 cell viability assay; format: cell-based; conditions: Mus musculus, 72 hours, stably expressing cKIT/T670I
Source text: as §1, §2

[5] = test system: TEL-PDGFRβ-BaF3; assay: Proliferation of TEL-PDGFRβ-BaF3 cells, CCK8 cell viability assay; format: cell-based; conditions: Mus musculus, 72 hours, stably expressing PDGFRβ kinase
Source text: as §1, §2

[6] = test system: FLT3-ITD-BaF3; assay: Proliferation of FLT3-ITD-BaF3 cells, CCK8 cell viability assay; format: cell-based; conditions: Mus musculus, 72 hours, stably expressing FLT3/ITD
Source text: as §1, §2

[7] = test system: BaF3; assay: Proliferation of BaF3 cells, CCK8 cell viability assay; format: cell-based; conditions: Mus musculus, 72 hours
Source text: as §1, §2

[8] = test system: TEL-PDGFRα-BaF3; assay: Proliferation of TEL-PDGFRα-BaF3 cells, CCK8 cell viability assay; format: cell-based; conditions: Mus musculus, 72 hours, stably expressing PDGFRα kinase
Source text: as §1, §2

[9] = test system: P210/T315I-BaF3; assay: Proliferation of P210/T315I-BaF3 cells, CCK8 cell viability assay; format: cell-based; conditions: Mus musculus, 72 hours, stably expressing BCR-ABL/T315I
Source text: as §1, §2

[10] = test system: P210-BaF3; assay: Proliferation of P210-BaF3 cells, CCK8 cell viability assay; format: cell-based; conditions: Mus musculus, 72 hours, stably expressing BCR-ABL mutant activated kinase
Source text: as §1, §2

Row | Structure (SMILES) | GI50 [1] | GI50 [2] | GI50 [3] | GI50 [4] | GI50 [5] | GI50 [6] | GI50 [7] | GI50 [8] | GI50 [9] | GI50 [10]
1 | Cc1ccc(NC(=O)Nc2ccc(Oc3cc(N4CCN[C@H](C)C4)ncn3)cc2)cc1C(F)(F)F [Example 106, (R)-1-(4-methyl-3-(trifluoromethyl)phenyl)-3-(4-((6-(3-methylpiperazin-1-yl)pyrimidin-4-yl)oxy)phenyl)urea] | 460 nM | 350 nM | 1730 nM | 0.99 µM | 136 nM | 300 nM | 8.92 µM | 21 nM |  | 
2 | CCCC(=O)Nc1cc(Oc2ccc(NC(=O)Cc3ccccc3C(F)(F)F)cc2)ncn1 [Example 167, N-(6-{4-[2-(2-trifluoromethyl-phenyl)-acetylamino]-phenoxy}-pyrimidin-4-yl)-butyramide] | 513 nM |  | 9840 nM | 7.94 µM | 112 nM | 126 nM | > 10 µM | 41 nM | > 10 µM | > 10 µM
3 | CC(=O)Nc1cc(Nc2ccc(NC(=O)Cc3cccc(C(F)(F)F)c3)cc2)ncn1 [Example 165, N-[4-(6-acetylamino-pyrimidin-4-ylamino)-phenyl]-2-(3-trifluoromethyl-phenyl)-acetamide] | 52 nM |  | 462 nM | 4.61 µM | 12 nM | 21 nM | > 10 µM | 1 nM | > 10 µM | > 10 µM
4 | CC(=O)Nc1cc(Nc2ccc(NC(=O)Cc3ccccc3C(F)(F)F)cc2)ncn1 [Example 164, N-[4-(6-acetylamino-pyrimidin-4-ylamino)-phenyl]-2-(2-trifluoromethyl-phenyl)-acetamide] | 1410 nM |  | > 10000 nM | > 10 µM | 938 nM | 444 nM | > 10 µM | 84 nM | > 10 µM | > 10 µM
5 | Cc1ccc(NC(=O)Nc2ccc(Oc3cc(N(C)CCO)ncn3)cc2)cc1C(F)(F)F [Example 87, 1-(4-{6-[(2-hydroxy-ethyl)-methyl-amino]-pyrimidin-4-yloxy}-phenyl)-3-(4-methyl-3-trifluoromethyl-phenyl)-urea] | 169 nM | 398 nM | 354 nM | 8.85 µM | 115 nM | 58 nM | 7.21 µM | 26 nM | 8.49 µM | 
6 | CC(=O)Nc1cc(Oc2ccc(CC(=O)Nc3cccc(C(F)(F)F)c3)cc2)ncn1 [Example 33, 2-[4-(6-acetylamino-pyrimidin-4-yloxy)-phenyl]-N-(3-trifluoromethyl-phenyl)-acetamide] | 4 nM | 13 nM | 301 nM | 0.081 µM | 4 nM | 10 nM | > 10 µM | 1 nM |  | 
7 | CC(=O)Nc1cc(Oc2ccc(CC(=O)Nc3cccc(Cl)c3C(F)(F)F)cc2)ncn1 [Example 35, 2-[4-(6-acetylamino-pyrimidin-4-yloxy)-phenyl]-N-(3-chloro-2-trifluoromethyl-phenyl)-acetamide] | 925 nM |  | > 10000 nM | 6.6 µM | 406 nM | 67 nM | > 10 µM | 203 nM |  | > 10 µM

Results, then the compound that gave them:

Row | GI50 [1] | GI50 [2] | GI50 [3] | GI50 [4] | GI50 [5] | GI50 [6] | GI50 [7] | GI50 [8] | GI50 [9] | GI50 [10] | Structure (SMILES)
8 | 99 nM |  | 2690 nM | 4.23 µM | 33 nM | 42 nM | > 10 µM | 6 nM | > 10 µM | > 10 µM | CC(=O)Nc1cc(Oc2ccc(NC(=O)Cc3ccc(F)c(F)c3)cc2)ncn1 [Example 168, N-[4-(6-acetylamino-pyrimidin-4-yloxy)-phenyl]-2-(3,4-difluoro-phenyl)-acetamide]
9 | 228 nM |  | 7010 nM | > 10 µM | 116 nM | 74 nM | > 10 µM | 24 nM | > 10 µM | > 10 µM | CC(=O)Nc1cc(Oc2ccc(NC(=O)Cc3ccccc3C)cc2)ncn1 [Example 161, N-[4-(6-acetylamino-pyrimidin-4-yloxy)-phenyl]-2-(2-methyl-phenyl)-acetamide]
10 | 3160 nM |  | > 10000 nM | > 10 µM | 925 nM | 1220 nM | > 10 µM | 137 nM | > 10 µM | > 10 µM | CC(=O)Nc1cc(Oc2ccc(NC(=O)C(C)c3ccc(C)cc3)cc2)ncn1 (centres unmarked) [Example 170, N-[4-(6-acetylamino-pyrimidin-4-yloxy)-phenyl]-2-(4-methyl-phenyl)-propanamide]
11 | 347 nM | 4260 nM | 7880 nM | > 10 µM | 134 nM | 180 nM | > 10 µM | 57 nM |  | > 10 µM | CC(=O)Nc1cc(Oc2ccc(CC(=O)N(C)c3ccc(Br)cc3)cc2)ncn1 [Example 39, 2-[4-(6-acetylamino-pyrimidin-4-yloxy)-phenyl]-N-(4-bromo-phenyl)-N-methyl-acetamide]
12 | 25 nM |  | 924 nM | 3.27 µM | 14 nM | 11 nM | > 10 µM | 5 nM | 9.07 µM | > 10 µM | CC(=O)Nc1cc(Oc2ccc(NC(=O)Cc3cccc4ccccc34)cc2)ncn1 [Example 163, N-[4-(6-acetylamino-pyrimidin-4-yloxy)-phenyl]-2-naphth-1-yl-acetamide]
13 | 17 nM |  | 589 nM | 0.036 µM | 2 nM | 4 nM | > 10 µM | < 1 nM |  |  | CC(=O)Nc1cc(Oc2ccc(CC(=O)Nc3ccc(C(F)(F)F)cc3)cc2)ncn1 [Example 36, 2-[4-(6-acetylamino-pyrimidin-4-yloxy)-phenyl]-N-(4-trifluoromethyl-phenyl)-acetamide]
14 | 744 nM | 2830 nM | 6930 nM | > 10 µM | 156 nM | 158 nM | > 10 µM | 102 nM |  |  | CC(=O)Nc1cc(Oc2ccc(NC(=O)Cc3cc(Cl)ccc3C(F)(F)F)cc2)ncn1 [Example 2, N-[4-(6-acetylamino-pyrimidin-4-yloxy)-phenyl]-2-(5-chloro-2-trifluoromethyl-phenyl)-acetamide]
15 | 2270 nM |  | > 10000 nM | 4.03 µM | 4 nM | 162 nM | > 10 µM | 5 nM |  | > 10 µM | CC(=O)Nc1cc(Oc2ccc(CC(=O)Nc3ccccc3)cc2)ncn1 [Example 37, 2-[4-(6-acetylamino-pyrimidin-4-yloxy)-phenyl]-N-phenyl-acetamide]
16 | 632 nM | 2850 nM | > 10000 nM | 8.31 µM | 466 nM | 213 nM | > 10 µM | 35 nM |  | > 10 µM | CC(=O)Nc1cc(Oc2ccc(CC(=O)Nc3ccc(C)cc3C(F)(F)F)cc2)ncn1 [Example 38, 2-[4-(6-acetylamino-pyrimidin-4-yloxy)-phenyl]-N-(4-methyl-2-trifluoromethyl-phenyl)-acetamide]
